Activity calls are given as the source filed them.
How the values were obtained:
[1] = target: DNA dC->dU-editing enzyme APOBEC-3G (Homo sapiens, UniProt Q9HC16); test: Dose Response confirmation of small molecule APOBEC3G DNA Deaminase Inhibitors via a fluorescence-based single-stranded DNA deaminase assay. [Related pubchem assays (depositor defined):AID493012, AID493028]; type: functional
[2] = target: DNA dC->dU-editing enzyme APOBEC-3A (Homo sapiens, UniProt P31941); test: A3A deaminase inhibition for selectivity – biochemical, dose response (AID 504722); type: functional
Sequence of DNA dC->dU-editing enzyme APOBEC-3A (P31941 whole entry): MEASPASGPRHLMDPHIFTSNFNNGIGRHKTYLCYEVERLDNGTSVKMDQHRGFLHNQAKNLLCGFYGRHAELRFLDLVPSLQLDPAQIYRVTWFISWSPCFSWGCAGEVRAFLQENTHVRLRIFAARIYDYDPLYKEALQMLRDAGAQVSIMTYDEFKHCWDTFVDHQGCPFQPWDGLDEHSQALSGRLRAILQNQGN

Cytochrome P450 2D6 = Cytochrome P450 2D6 (Homo sapiens, UniProt P10635);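 note: CYP2D6 member of a cytochrome P450 panel assay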
Sequence of Cytochrome P450 2D6 (P10635 whole entry): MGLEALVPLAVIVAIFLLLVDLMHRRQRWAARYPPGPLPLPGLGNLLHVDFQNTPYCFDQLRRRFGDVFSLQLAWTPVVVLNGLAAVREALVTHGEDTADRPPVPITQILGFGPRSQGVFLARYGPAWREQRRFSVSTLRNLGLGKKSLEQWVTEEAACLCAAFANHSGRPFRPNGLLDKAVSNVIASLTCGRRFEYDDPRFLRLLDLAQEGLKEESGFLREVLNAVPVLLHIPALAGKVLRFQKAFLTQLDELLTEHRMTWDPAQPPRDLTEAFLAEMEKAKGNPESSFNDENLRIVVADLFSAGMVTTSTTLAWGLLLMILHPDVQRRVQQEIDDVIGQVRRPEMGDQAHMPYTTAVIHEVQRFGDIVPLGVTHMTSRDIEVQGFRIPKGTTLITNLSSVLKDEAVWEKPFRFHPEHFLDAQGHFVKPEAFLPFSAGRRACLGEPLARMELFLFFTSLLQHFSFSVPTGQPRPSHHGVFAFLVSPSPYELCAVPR

Cytochrome P450 3A4 [3] = target: T1, Cytochrome P450 3A4 (Homo sapiens, UniProt P08684);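 note: CYP3A4 tested as one member of a cytochrome P450 panel screen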
T1 sequence (P08684 whole entry): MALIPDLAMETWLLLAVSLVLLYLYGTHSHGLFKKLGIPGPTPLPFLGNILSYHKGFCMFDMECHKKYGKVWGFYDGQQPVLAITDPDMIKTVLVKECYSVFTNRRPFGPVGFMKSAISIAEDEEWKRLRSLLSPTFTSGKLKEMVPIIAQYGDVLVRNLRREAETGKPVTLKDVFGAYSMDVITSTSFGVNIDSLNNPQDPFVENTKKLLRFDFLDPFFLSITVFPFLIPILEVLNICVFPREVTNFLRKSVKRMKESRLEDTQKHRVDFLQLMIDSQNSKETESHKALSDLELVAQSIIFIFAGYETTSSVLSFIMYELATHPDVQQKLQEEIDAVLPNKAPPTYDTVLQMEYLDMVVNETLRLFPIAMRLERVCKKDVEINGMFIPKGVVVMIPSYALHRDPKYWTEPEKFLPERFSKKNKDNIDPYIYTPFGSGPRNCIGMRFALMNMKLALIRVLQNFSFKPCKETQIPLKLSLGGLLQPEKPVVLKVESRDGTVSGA

[4] = target: Eukaryotic translation initiation factor 4H (Homo sapiens, UniProt Q15056); test: inhibitors of translation initiation factor eIF4H – SAR follow-up (AID 435011); type: functional
[5] = target: Polyadenylate-binding protein 1 (Homo sapiens, UniProt P11940); test: PABP inhibition in translation initiation, SAR follow-up (AID 435018); type: functional
Sequence of Polyadenylate-binding protein 1 (P11940 whole entry): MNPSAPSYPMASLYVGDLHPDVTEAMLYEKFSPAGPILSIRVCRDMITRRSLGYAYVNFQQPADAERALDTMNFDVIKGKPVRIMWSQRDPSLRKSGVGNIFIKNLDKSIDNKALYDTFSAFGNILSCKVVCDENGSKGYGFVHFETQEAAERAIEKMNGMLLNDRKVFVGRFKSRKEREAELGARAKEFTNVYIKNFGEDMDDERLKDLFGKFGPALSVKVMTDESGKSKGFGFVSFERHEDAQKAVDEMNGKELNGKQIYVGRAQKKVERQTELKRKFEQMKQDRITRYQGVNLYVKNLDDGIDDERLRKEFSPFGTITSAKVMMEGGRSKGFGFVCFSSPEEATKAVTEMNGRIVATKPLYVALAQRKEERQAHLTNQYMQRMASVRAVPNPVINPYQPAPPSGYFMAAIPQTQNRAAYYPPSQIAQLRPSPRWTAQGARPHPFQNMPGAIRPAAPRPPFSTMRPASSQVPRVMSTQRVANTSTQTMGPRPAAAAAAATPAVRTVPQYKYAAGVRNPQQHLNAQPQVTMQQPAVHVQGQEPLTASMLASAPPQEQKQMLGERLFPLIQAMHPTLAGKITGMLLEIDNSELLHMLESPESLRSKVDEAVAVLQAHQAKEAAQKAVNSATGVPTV

Vero [6] = test: cells; type: functional, cell-based; settings: Chlorocebus sabaeus
BJ [7] = test: cells; type: functional, cell-based; settings: Homo sapiens
Vero [8] = test: cells; type: functional; settings: Chlorocebus sabaeus
BJ [9] = test: BJ-TERT-LT-ST fibroblast viability loss – cell-based, RAS-independent, luminescence, dose response (AID 1935); type: functional; settings: Homo sapiens;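 note: BJ fibroblasts immortalized with TERT plus LT and ST oncogenes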
[10] = DRD fibroblast viability loss – cell-based, non-viral oncogenic, luminescence, dose response (AID 1934); type: functional; settings: Homo sapiens
BJ [11] = test: BJ-TERT fibroblast viability loss – cell-based, RAS-independent, luminescence, dose response (AID 1933); type: functional; settings: Homo sapiens
[12] = target: T2, E3 ubiquitin-protein ligase XIAP (Homo sapiens, UniProt P98170); test: small molecules displacing peptide from XIAP – biochemical, IAP family, fluorescence polarization (AID 1018); type: functional
T2 sequence (P98170 whole entry): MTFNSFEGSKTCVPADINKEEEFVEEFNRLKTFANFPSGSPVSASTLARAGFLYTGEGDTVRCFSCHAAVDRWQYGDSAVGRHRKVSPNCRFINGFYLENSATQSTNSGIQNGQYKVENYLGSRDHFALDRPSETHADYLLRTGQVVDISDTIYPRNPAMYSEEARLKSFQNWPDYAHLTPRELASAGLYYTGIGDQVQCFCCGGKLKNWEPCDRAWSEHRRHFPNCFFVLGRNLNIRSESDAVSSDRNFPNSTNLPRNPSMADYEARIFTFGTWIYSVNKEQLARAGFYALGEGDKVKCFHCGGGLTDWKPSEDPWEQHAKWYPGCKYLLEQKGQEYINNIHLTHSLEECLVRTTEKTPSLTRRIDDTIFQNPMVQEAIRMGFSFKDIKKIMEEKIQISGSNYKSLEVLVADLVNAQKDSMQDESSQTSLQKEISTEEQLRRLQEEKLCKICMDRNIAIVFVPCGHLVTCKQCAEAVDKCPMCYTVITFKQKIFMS

[13] = target: T3, Corticotropin-releasing factor receptor 2/Corticotropin-releasing factor-binding protein (Homo sapiens, UniProt P24387+Q13324); test: activators of CRF receptor 2 with binding protein – uHTS hits, confirmation (AID 602473); type: functional; settings: read-out: EC50_Mean
T3 sequence (Q13324 whole entry): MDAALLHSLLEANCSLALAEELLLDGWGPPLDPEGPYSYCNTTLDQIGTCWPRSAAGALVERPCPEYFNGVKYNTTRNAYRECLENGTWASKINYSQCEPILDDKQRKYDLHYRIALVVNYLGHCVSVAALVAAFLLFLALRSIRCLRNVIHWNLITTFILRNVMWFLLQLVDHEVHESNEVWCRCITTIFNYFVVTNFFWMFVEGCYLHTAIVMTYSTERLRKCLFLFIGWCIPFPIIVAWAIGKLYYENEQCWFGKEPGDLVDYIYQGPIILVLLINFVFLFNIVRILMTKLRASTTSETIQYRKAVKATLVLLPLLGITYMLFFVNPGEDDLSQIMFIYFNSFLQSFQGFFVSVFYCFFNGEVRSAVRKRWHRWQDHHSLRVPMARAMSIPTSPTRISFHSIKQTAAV
T3 sequence (P24387 whole entry): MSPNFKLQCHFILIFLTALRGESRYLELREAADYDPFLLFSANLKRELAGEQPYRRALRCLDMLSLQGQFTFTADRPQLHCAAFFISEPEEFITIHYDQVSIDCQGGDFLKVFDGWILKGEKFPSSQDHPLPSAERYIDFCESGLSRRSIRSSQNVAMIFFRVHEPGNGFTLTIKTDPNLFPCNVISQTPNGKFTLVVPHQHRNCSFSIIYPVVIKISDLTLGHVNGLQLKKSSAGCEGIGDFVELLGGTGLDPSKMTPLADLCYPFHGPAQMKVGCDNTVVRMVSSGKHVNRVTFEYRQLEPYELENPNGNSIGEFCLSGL

[14] = target: T2, E3 ubiquitin-protein ligase XIAP; test: Counter Screen using XIAP-Bir3 for Chemical Antagonists of Bir1/2 domains of IAP-family anti-apoptotic proteins. [Related pubchem assays (depositor defined):AID1018, AID1449, AID1514, AID1638, AID1749, AID1750, AID488957, AID488963]
[15] = target: T4, RNA-binding protein pos-1 (Caenorhabditis elegans, UniProt G5EF15); test: disruptors of C. elegans POS-1 RNA interaction – biochemical, fluorescence polarization, dose response (AID 1964);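 note: purified POS-1 fused to maltose binding protein made in E. coli; potency of compounds blocking POS-1 binding to fluorescent RNA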
T4 sequence (G5EF15 whole entry): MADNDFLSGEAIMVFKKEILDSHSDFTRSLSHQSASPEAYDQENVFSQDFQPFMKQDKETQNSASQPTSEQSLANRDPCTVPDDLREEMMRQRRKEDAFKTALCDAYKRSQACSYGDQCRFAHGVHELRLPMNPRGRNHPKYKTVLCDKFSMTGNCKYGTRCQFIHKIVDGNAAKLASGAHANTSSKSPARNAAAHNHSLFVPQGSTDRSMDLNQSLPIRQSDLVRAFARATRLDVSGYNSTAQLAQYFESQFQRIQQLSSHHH

[16] = target: T5, Zinc finger protein mex-5 (Caenorhabditis elegans, UniProt Q9XUB2); test: potency of MEX-5 RNA-binding blockers – biochemical, C. elegans, fluorescence polarization, dose response (AID 1960)
T5 sequence (Q9XUB2 whole entry): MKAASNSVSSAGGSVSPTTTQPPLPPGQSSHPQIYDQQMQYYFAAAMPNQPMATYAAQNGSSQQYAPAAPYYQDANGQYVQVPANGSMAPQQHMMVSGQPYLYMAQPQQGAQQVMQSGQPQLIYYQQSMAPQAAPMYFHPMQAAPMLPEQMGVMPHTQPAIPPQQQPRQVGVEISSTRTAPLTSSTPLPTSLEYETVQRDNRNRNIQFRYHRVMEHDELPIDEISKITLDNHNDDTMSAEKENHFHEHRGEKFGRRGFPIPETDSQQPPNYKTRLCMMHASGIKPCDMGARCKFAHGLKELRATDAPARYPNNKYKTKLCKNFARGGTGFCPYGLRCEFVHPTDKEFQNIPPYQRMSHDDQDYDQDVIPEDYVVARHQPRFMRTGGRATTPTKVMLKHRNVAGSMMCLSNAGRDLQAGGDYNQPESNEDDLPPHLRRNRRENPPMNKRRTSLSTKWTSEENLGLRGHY

HEK293 = test: EBV LMP1 TES2 canonical NF-kB signalling blockers – cell-based, HEK293, luciferase, cherry-pick, dose response (AID 588343); type: functional; settings: Homo sapiens
[17] = viability of uninfected HEp-2 cells – cell-based, HTS, cytotoxicity control for RSV inhibitor project, dose response (AID 2410); type: functional; settings: human respiratory syncytial virus
[18] = target: T6, Calpain-2 catalytic subunit (Sus scrofa, UniProt P43367); test: m-calpain protease blockers, concentration series – biochemical, fluorogenic peptide substrate, dose response (AID 1420); type: functional
T6 sequence (P43367 whole entry): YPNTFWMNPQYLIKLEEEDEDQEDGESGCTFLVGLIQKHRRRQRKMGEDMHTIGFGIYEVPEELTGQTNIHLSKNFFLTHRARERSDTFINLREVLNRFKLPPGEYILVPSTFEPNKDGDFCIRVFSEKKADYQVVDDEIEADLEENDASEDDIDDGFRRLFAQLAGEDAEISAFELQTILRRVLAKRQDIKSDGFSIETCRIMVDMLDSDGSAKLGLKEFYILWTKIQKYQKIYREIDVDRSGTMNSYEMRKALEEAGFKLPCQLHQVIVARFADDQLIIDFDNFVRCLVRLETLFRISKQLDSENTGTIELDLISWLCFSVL

[19] = target: T7, Tyrosine-protein phosphatase non-receptor type 7 (Homo sapiens, UniProt P35236); test: inhibition of hematopoietic tyrosine phosphatase HePTP – biochemical, set 2, SAR follow-up (AID 449736); type: functional
T7 sequence (P35236 whole entry): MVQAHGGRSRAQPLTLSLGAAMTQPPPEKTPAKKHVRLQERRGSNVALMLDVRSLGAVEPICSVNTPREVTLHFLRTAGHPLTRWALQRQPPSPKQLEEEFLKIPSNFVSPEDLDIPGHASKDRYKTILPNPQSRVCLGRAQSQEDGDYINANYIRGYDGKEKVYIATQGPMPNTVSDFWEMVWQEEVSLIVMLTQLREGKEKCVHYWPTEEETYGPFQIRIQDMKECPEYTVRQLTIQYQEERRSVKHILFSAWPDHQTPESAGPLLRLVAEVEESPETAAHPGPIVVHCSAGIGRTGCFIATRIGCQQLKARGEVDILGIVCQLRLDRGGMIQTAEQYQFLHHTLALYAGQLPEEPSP

Cytochrome P450 2C19 = Cytochrome P450 2C19 (Homo sapiens, UniProt P33261); test: Cytochrome panel assay with activity outcomes. Panel member name: p450-cyp2c19 Compounds with AC50 equal or less than 10 uM are considered active; type: functional
Sequence of Cytochrome P450 2C19 (P33261 whole entry): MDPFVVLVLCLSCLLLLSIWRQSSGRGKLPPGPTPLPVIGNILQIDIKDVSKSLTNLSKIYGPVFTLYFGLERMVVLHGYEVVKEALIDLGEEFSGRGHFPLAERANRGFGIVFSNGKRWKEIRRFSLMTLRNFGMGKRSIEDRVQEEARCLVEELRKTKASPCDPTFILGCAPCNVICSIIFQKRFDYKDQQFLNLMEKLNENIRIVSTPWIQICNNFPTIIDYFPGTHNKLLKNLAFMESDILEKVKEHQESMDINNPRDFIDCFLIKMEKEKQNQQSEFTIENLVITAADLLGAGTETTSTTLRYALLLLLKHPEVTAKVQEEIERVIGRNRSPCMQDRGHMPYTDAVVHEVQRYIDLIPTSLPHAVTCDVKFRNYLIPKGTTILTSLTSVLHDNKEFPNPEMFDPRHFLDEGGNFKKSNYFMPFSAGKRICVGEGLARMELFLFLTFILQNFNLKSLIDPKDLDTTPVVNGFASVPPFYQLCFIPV

Cytochrome P450 3A4 [20] = target: T1, Cytochrome P450 3A4; remark: listed apart in the source
Cytochrome P450 2C9 = Cytochrome P450 2C9 (Homo sapiens, UniProt P11712)
Sequence of Cytochrome P450 2C9 (P11712 whole entry): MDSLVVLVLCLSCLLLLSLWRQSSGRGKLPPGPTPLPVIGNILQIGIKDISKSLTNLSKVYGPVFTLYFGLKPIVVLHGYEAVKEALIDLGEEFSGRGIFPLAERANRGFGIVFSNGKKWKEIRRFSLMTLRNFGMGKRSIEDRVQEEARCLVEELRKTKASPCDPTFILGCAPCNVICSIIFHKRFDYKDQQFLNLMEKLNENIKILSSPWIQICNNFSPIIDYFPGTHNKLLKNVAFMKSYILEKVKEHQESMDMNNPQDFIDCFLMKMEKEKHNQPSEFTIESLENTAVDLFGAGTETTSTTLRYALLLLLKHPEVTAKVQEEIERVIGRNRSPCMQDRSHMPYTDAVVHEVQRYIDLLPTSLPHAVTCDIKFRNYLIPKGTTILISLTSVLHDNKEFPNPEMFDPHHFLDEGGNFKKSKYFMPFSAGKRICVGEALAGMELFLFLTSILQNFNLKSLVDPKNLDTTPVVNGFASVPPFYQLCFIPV

[21] = target: Voltage-dependent T-type calcium channel subunit alpha-1H (Homo sapiens, UniProt O95180); type: functional;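 note: channel activity triggered by adding a high calcium stimulation buffer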
Cytochrome P450 1A2 = target: T8, Cytochrome P450 1A2 (Homo sapiens, UniProt P05177);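 note: PubChem cytochrome P450 panel assay, CYP1A2 panel member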
T8 sequence (P05177 whole entry): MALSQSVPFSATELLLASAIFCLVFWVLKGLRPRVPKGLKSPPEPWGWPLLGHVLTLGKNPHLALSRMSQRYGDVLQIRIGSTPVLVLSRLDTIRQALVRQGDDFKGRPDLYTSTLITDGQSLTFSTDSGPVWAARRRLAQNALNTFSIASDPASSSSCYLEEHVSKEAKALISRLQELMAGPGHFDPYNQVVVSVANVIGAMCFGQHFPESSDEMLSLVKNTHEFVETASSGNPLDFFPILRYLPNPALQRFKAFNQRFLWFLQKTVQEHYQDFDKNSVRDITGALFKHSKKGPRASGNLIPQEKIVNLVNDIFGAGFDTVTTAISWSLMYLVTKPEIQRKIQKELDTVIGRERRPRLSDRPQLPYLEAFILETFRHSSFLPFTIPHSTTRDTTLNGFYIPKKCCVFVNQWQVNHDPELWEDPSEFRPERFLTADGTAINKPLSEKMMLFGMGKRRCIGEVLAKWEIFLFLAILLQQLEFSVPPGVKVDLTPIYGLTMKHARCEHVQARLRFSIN

Sequence of DNA dC->dU-editing enzyme APOBEC-3G (Q9HC16 whole entry): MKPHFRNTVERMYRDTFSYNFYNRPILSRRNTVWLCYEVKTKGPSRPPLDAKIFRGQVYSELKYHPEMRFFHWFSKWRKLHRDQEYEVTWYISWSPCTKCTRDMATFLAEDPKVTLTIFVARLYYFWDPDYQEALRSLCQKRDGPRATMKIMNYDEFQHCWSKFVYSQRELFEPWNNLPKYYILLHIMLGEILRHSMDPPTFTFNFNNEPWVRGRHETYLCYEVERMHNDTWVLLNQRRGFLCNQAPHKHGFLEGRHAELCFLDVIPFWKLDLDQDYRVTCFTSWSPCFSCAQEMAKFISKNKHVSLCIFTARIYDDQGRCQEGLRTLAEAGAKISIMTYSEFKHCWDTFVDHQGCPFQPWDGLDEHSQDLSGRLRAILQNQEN

CCCCn1c(S)nnc1-c1ccc([N+](=O)[O-])cc1
IC50 [1]: 3.5 µM (active)
IC50 [2]: > 100 µM (inactive)

Cn1c(=O)n(C)c2cc([N+](=O)[O-])c(N3CCN(C(=O)c4ccccc4Cl)CC3)cc21
AC50 (Cytochrome P450 2D6): 0.0355 µM (inconclusive)
AC50 (Cytochrome P450 3A4 [3]): inconclusive

O=C(COc1ccc(C=NNC(=O)c2ccccc2O)cc1)Nc1ccccc1
IC50 [4]: > 100 µM (inactive)
IC50 [5]: > 100 µM (inactive)

Cc1ccc(N(Cc2cc(O)nc3ccccc23)C(=O)CCl)cc1
IC50 (Vero [6]): > 25 µM (active)
EC50 (BJ [7]): 8.7 µM (active)
CC50 (Vero [8]): 6.57 µM (active)
EC50 (BJ [9]): 8.14 µM (inconclusive)
EC50 [10]: 4.97 µM (inconclusive)
EC50 (BJ [11]): 1.19 µM (inconclusive)

CCn1c(CCNC(=O)c2ccc(OC)cc2)nnc1SCc1ccc(Cl)c(Cl)c1
IC50 [12]: > 100 µM (not active)
EC50 [13]: > 53 µM (inactive)
IC50 [14]: > 100 µM (inactive)

C=CCn1c(S)nnc1-c1sc2nc(C)cc(C)c2c1N
IC50 [1]: 3.28 µM (active)
IC50 [2]: > 100 µM (inactive)

CC(C)(C)c1ccc(C(=O)Nc2cccc3ncccc23)cc1
IC50 [4]: 1.14 µM (active)
EC50 [15]: 8.65 µM (active)
EC50 [16]: 5.39 µM (active)
IC50 [5]: 1.32 µM (active)

Clc1ccc(COn2c(-c3ccccc3)nc3ccccc32)cc1
AC50 (Cytochrome P450 3A4 [3]): inconclusive

C#CCn1c(S(=O)(=O)Cc2ccc(F)cc2)nc(-c2ccccc2)c1-c1ccccc1
IC50 (Vero [6]): 3.94 µM (active)
IC50 (cells): 4.97 µM (active)
AC50 (HEK293): 21.7 µM (active)
CC50 (Vero [8]): 22.2 µM (active)
CC50 [17]: 3.47 µM (active)

OCC1(CCc2ccccc2)CCN(Cc2ccc(OC(F)F)cc2)CC1
IC50 [12]: > 100 µM (not active)
IC50 [14]: > 100 µM (inactive)

CCCCSc1nnc2c(n1)OC(C(=O)c1ccccc1)Nc1ccccc1-2 (configuration not stated)
IC50 [12]: > 50 µM (not active)
IC50 [18]: > 50 µM (not active)
IC50 [14]: > 100 µM (inactive)

Nc1c(C(=O)N2CCOCC2)sc(=S)n1-c1ccc(F)c(Cl)c1
IC50 [19]: > 100 µM (inactive)

COc1ccccc1N=C1SC(C(=O)Nc2ccccc2)CC(=O)N1C (configuration not stated)
IC50 [4]: > 100 µM (inactive)
IC50 [5]: > 100 µM (inactive)

CCOC(=O)N/N=C/c1ccc(Oc2ccccc2)cc1
IC50 [12]: > 100 µM (not active)
IC50 [14]: > 100 µM (inactive)

Cc1nnc(S)n1/N=C/c1ccc(Br)o1
IC50 [1]: 6.93 µM (active)
IC50 [2]: > 100 µM (inactive)
AC50 (Cytochrome P450 2C19): inconclusive
AC50 (Cytochrome P450 3A4 [20]): 25.1 µM (inconclusive)

Sc1nc(-c2ccccc2)cn1/N=C/c1ccncc1
IC50 [1]: 2.93 µM (active)
IC50 [2]: > 100 µM (inactive)

O=c1[nH]c2ccccc2n1CCCN1CCN(C(c2ccccc2)c2ccccc2)CC1 [OXATOMIDE]
AC50 (Cytochrome P450 2C9): 7.94 µM (inconclusive)
EC50 [21]: 5.15 µM (active)
AC50 (Cytochrome P450 1A2): 25.1 µM (inconclusive)
AC50 (Cytochrome P450 3A4 [3]): inconclusive
